In patent US12440451B2, “Compositions and methods using an epigenetic inhibitor” (DANA-FARBER CANCER INSTITUTE, INC., priority 2017, dated 2025):

How the values were obtained:
[1] = system: OT-I+ CD8+ T cells; assay: APC-free T cell activation with anti-CD3 and anti-CD28 antibodies, flow cytometry; format: cell-based, mouse; conditions: anti-CD3 and anti-CD28 or BMDC+SIINFEKL activation; 7 days; relative to DMSO
Excerpt: It was important to determine whether the observed effect of RGFP966 on CD8^+ T cells post-activation was due to the drug acting on T cells, on the antigen-presenting cells, or both. To do so, the effect of RGFP966 treatment on CD8^+ T cells activated was compared in parallel using either antigen-pulsed BMDCs or antibodies against CD3 and CD28. The latter method of activating T cells is free of APCs and allowed determination of whether the effect of RGFP966 required the presence of APCs.
96-well tissue culture plates were coated with 10 μg/ml α-CD3 antibodies overnight at 4° C., then washed with PBS prior to addition of OT-I^+ CD8^+ T cells (2×10^5/well) and α-CD28 antibody (2 μg/ml) (labeled as anti-CD3 and anti-CD28). OT-I^+ CD8^+ T cells from the same batch of cells were also activated in parallel on antigen-loaded BMDCs (labeled as BMDC+SIINFEKL (SEQ ID NO: 1)) were prepared as described above. T cells were activated for 7 days, with media changes on days 3 and 5, then collected for flow cytometry phenotype analysis.

[2] = system: human CD8+ T cells; assay: activation of human CD8+ T cells with anti-CD3 and anti-CD28, flow cytometry; format: cell-based; conditions: 10 μM; 7 days
Description: Further investigation was conducted to discover whether the augmented cytotoxic effector phenotype observed in mouse CD8^+ T cells post-activation with HDAC3 inhibition was also true in human CD8^+ T cells. Total CD8^+ T cells were negatively isolated from the peripheral blood of healthy human donors, and activated in vitro using plate-bound anti-CD3 and soluble anti-CD28 antibodies in the presence or absence of 0 μM (vehicle control) or 10 μM RGFP966. Following 7 days of in vitro activation, without additional IL-2 supplementation, CD8^+ T cells were analyzed by flow cytometry for expression of markers associated with T cell activation, effector cytokines, and cytotoxicity. The results are summarized in the graphs of FIG. 13A.

[3] = system: H3K27-ac in CD8+ T cells; assay: H3K27-ac ChIP-sequencing of activated CD8+ T cells; format: cell-based, mouse; conditions: days 5 and 7 post-activation
Description: ChIP-sequencing was then performed to survey the genomic landscape of H3K27 acetylation in the absence or the presence of HDAC3 activity on days 5 and 7 post-activation using the same in vitro activation co-culture system as in as described in FIG. 1 and Example 1 above.
FIGS. 9C-9H show H3K27-ac ChIP-sequence tracks, from top to bottom: naïve CD8^+ T cells (day 0): control-treated cells, day 5 post-activation: RGFP966-treated cells, day 5 post-activation: control-treated cells, day 7 post-activation: RGFP966-treated cells, day 7 post-activation. Arrows under gene names indicate direction of transcription. Tracks were visualized with the IGV genome browser (Broad Institute, MA).

[4] = system: H3K9-Ac and H3K27-Ac in CD8+ T cells; assay: ChIP-qPCR for H3K9ac and H3K27ac at promoter regions of 32 effector function genes; format: cell-based, mouse; conditions: 3 μM, 5 days
Description: Chromatin was extracted from sorted CD8^+ T cells activated with or without RGFP966 for 5 days as described in FIG. 1 and Example 1 above, and chromatin immunoprecipitation (ChIP) was performed for H3K9ac and H3K27 markers.
Immunoprecipitated chromatin was analyzed using quantitative real-time PCR (qPCR) with primer probes for the promoter regions of a custom set of 32 genes known to be associated with various aspects of CD8^+ T cell effector function (effector cytokines, cytotoxicity, regulatory transcription factors, as well as positive and negative controls for data quality control). […] Histogram bars are presented in pairs for each marker, with the left hand bar of each pair (gray) representing data from untreated CD8^+ T cells and the right hand bar of each pair (black) representing data from CD8^+ T cells treated with 3 μM RGF966.

[5] = system: B16-Ova cells; assay: in vitro 51Cr release cytotoxicity assay of activated OT-I+ CD8+ T cells against target cells; format: cell-based, mouse; conditions: for specific lysis of cells expressing target antigen: 4 hours co-incubation, FIG. 4A
Description: In order to functionally assess the phenotype of OT-I^+ CD8^+ T cells activated in the presence of RGFP966, the ability of the activated T cells to kill B16 melanoma tumor cell targets expressing the cognate SIINFEKL (SEQ ID NO: 1) antigen of the OT-I TCR was assayed. The B16-Ova cells were engineered to express chicken ovalbumin in their cytosol, and express SIINFEKL (SEQ ID NO: 1) on Kb MHC I molecules when treated with IFN-γ. In preparation for the cytotoxicity assay, B16-Ova cells were treated with 10 ng/ml IFN-γ for 48 hours prior to harvest and loading with ^51Cr radionuclide. After radiolabeling, B16-Ova cells were seeded into 96-well plates (5×10^3/well) and allowed to adhere for 1 hour prior to addition of CD8^+ effector cells. OT-I^+ CD8^+ T cells were activated as described above using SIINFEKL-pulsed BMDCs in the presence of 10 μM, 1 μM, or 0 μM RGFP966. After 7 days of activation, T cells were harvested, washed to remove the drug, and counted. OT-I^+ CD8^+ effector cells were added to the assay plates containing B16-Ova target cells at the indicated ratios: there was no drug present during the cytotoxicity assay. Specific killing of targets was assessed by measurement of 51Cr release into the culture supernatant 4 hours after co-culture. To verify that genetic ablation of HDAC3 functionally recapitulated the augmented cytotoxic effector phenotype of HDAC3 inhibition using RGFP966, HDAC3-KO T cells were generated from OT-I^+ CD8^+ Cas9^+ T cells as described above, and compared with RGFP966-treated T cells from the same batch in an in vitro cytotoxicity assay.

SMILES: Nc1cc(F)ccc1NC(=O)/C=C/c1cnn(C/C=C/c2ccccc2)c1 [RGFP966]
- T cell effector phenotype (CD25, granzyme B, IFN-γ, TNF-α, IL-2) [1]: augmented their T cell effector phenotype across both methods of T cell activation
- expression of CD25 [2]: upregulation
- expression of CD44 [2]: upregulation
- expression of granzyme B [2]: upregulation
- H3K27-ac at GzmB, Fasl, ID2, PRDM1 and TBX21 [3]: increased H3K27-ac
- H3K27-ac at RUNX3 [3]: increased H3K27-ac
- H3K27ac at loci of effector cytokines, EOMES and BCL6 ([3]; data not shown): no significant changes
- histone acetylation at GZMB, FASL, TBX21, PRDM1 and ID2 [4]: most significant changes in histone acetylation
- H3K9 and H3K27 acetylation at promoters of IFN-γ, TNF-α and IL-2 ([4]; not always significant): generally had increased H3K9 and H3K27 acetylation
- killing of cognate antigen-expressing target cells ([5]; T cells activated in the presence of the drug, dose-dependent): kill cognate antigen-expressing target cells more effectively than untreated cells
- cytotoxicity compared with control treatment ([5]; T cells activated with 1 μM): modest but non-significant increase in cytotoxicity
- specific lysis of cells expressing target antigen ([5]; T cells activated with 1 μM): about 45%
- specific lysis of cells expressing target antigen ([5]; T cells activated with 10 μM): ~70%
